Earlier results as cited in US20170315129A1, “CANCER CELL DETECTION METHOD USING LIVING BODY-DERIVED CELLS OF BIOLOGICAL ORIGIN” (Hirosaki University, priority 2014, published 2017).

System: mammalian cells
Conditions: kinetics comparable to a radiolabeled D-glucose derivative; cited from earlier work

Compound: O=[N+]([O-])c1ccc(N[C@H]2C(O)O[C@H](CO)[C@@H](O)[C@@H]2O)c2nonc12 (stereo partly shown) [2-NBDG]
- uptake into mammalian cells: taken up into mammalian cells through glucose transporters
